Assays:
[1] = Relative solubility by turbidity in aqueous buffers; type: physicochemical; settings: for turbidity threshold (L, M, H) 4.5: pH 4.5 (Simulated Intestinal fluid); for turbidity threshold (L, M, H) 6.8: pH 6.8 (Simulated Intestinal fluid); for turbidity threshold (L, M, H) 7.4: pH 7.4 (Hepes Buffer)
Procedure: As an indication of relative solubility, the turbidity of compounds in aqueous solutions is assessed. To assess possible compound properties in different physiological compartments, such as stomach, intestine, and blood, a series of aqueous buffers with varying pH is used. Thus each compound is diluted into four different physiologically relevant buffers and solution turbidity is measured by spectrophotometry.
Compounds are dissolved at a concentration of 25 mM in dimethyl sulfoxide, then serially diluted 1:1 into a 96 well plate, diluting 10 times in pure dimethyl sulfoxide, with the final well of each row a dimethyl sulfoxide blank. In an assay plate, 99 μL of appropriate buffer is added to each well, and 1 μL of each sample dilution is added to the buffer, achieving a range of final total concentrations in aqueous solutions having different pH. The buffers used are Simulated Gastric Fluid (SGF-pH 1.5) 0.5M NaCl, pH 1.5; Simulated Intestinal fluid (SIF-pH 4.5 and pH 6.8) 0.05M NaH2PO4, pH 4.5 and 6.8; and Hepes Buffer (HEPES-pH 7.4) 10 mM HEPES, 150 mM NaCl, pH 7.4. Control compounds pyrene, estriol and propranolol HCl are also assessed. Plates are spun and then mixed for 1 minute, and the absorbance is read using a Tecan Safire II to read wavelengths in the visible range (490, 535, and 650 nm) at four locations per well, reflecting the degree of turbidity present. The average optical density for each wavelength in each well is graphed vs. compound concentration, and the concentration at which the curve crosses a threshold O.D. of 0.01 for each wavelength is reported as the endpoint turbidity assay result. The average of the three wavelengths is used to compare turbidity of compounds. Compounds are considered to have low solubility if the threshold concentration is <31.3 μM, moderate solubility if the threshold concentration is 31.3 μM to 250 μM, and high solubility if the threshold concentration is >250 μM.

[2] = target: Kit (Homo sapiens, UniProt P10721); assay: Biochemical inhibitory activity, other protein kinases: Kit; settings: for Kinase having IC50 of >1 μM: listing of the kinase means IC50 >1 μM
Sequence of Kit (P10721 26-976, species assumed): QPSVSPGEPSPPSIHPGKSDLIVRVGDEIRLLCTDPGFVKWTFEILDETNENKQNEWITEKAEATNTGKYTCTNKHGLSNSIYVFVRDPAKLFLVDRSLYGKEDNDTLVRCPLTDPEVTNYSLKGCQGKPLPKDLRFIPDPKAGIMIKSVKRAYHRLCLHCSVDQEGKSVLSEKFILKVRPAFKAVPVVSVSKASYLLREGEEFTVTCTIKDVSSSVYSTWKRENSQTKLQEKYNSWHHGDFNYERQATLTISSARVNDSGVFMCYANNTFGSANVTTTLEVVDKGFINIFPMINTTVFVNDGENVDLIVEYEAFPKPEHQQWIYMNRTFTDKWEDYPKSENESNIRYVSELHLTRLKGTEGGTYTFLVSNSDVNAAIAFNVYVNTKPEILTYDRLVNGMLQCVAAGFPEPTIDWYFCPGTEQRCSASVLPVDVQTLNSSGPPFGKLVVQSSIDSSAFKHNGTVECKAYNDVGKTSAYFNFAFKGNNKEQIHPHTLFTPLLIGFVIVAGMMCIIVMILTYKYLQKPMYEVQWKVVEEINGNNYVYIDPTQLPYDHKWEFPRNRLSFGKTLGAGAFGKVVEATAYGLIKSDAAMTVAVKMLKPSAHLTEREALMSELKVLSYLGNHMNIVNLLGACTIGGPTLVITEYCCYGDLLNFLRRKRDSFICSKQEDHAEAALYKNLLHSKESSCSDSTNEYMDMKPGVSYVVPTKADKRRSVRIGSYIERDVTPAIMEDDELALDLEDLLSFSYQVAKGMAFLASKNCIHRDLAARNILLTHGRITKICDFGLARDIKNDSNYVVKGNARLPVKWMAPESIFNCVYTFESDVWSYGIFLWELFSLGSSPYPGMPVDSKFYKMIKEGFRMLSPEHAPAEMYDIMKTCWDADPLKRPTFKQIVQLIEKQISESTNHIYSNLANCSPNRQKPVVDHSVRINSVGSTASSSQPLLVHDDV

[3] = target: Btk (Homo sapiens, UniProt Q06187); assay: Biochemical inhibitory activity, other protein kinases: Btk; settings: listing of the kinase means IC50 >1 μM
Sequence of Btk (Q06187 whole entry, species assumed): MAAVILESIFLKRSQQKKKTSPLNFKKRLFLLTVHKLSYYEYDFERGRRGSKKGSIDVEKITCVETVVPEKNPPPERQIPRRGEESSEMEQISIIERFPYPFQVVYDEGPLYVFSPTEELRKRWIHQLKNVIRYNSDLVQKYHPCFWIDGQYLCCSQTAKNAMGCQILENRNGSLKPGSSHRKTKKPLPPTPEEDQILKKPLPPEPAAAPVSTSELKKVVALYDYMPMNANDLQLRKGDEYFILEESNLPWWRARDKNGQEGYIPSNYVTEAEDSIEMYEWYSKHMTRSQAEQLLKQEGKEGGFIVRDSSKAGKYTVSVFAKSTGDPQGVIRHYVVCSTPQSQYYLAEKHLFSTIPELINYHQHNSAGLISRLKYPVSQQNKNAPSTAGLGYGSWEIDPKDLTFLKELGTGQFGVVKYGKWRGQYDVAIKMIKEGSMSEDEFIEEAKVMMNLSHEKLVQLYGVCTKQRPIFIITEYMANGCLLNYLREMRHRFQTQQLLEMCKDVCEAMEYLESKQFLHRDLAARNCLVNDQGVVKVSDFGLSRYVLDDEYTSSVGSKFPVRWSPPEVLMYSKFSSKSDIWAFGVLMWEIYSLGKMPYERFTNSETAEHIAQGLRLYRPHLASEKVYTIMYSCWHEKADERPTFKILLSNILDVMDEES

[4] = target: T1, Tec (Homo sapiens, UniProt P42680); assay: Biochemical inhibitory activity, other protein kinases: Tec; settings: for Kinase having IC50 of <1 μM: listing of the kinase means IC50 <1 μM; for Kinase having IC50 of >1 μM: listing of the kinase means IC50 >1 μM
T1 sequence (P42680 1-631): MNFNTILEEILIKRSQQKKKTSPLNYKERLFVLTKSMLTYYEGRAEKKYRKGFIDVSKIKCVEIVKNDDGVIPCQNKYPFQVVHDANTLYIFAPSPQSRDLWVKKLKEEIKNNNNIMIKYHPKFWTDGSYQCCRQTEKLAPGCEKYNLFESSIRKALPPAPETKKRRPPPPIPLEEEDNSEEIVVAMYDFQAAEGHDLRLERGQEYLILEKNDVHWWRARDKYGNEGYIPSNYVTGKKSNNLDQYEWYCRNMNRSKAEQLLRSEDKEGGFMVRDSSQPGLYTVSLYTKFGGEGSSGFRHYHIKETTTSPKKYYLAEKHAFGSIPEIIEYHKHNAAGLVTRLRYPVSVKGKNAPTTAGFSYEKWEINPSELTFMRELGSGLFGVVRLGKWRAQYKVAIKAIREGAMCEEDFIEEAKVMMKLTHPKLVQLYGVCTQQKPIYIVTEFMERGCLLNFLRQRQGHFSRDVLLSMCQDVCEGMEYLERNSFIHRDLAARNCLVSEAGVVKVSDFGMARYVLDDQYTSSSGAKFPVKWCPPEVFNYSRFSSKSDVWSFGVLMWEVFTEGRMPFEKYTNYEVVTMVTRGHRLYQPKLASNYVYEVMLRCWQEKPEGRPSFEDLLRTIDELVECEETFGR

[5] = Relative solubility by turbidity in aqueous buffers; type: physicochemical; settings: pH 1.4 as headed (Simulated Gastric Fluid)
[6] = target: T2, B-Raf V600E (Homo sapiens, UniProt P15056, V600E); assay: Raf biochemical kinase assay (biotin-MEK1 phosphorylation), B-Raf V600E; settings: 100 μM ATP
T2 construct: purchased Upstate Biotechnology
T2 sequence (P15056 whole entry V600E): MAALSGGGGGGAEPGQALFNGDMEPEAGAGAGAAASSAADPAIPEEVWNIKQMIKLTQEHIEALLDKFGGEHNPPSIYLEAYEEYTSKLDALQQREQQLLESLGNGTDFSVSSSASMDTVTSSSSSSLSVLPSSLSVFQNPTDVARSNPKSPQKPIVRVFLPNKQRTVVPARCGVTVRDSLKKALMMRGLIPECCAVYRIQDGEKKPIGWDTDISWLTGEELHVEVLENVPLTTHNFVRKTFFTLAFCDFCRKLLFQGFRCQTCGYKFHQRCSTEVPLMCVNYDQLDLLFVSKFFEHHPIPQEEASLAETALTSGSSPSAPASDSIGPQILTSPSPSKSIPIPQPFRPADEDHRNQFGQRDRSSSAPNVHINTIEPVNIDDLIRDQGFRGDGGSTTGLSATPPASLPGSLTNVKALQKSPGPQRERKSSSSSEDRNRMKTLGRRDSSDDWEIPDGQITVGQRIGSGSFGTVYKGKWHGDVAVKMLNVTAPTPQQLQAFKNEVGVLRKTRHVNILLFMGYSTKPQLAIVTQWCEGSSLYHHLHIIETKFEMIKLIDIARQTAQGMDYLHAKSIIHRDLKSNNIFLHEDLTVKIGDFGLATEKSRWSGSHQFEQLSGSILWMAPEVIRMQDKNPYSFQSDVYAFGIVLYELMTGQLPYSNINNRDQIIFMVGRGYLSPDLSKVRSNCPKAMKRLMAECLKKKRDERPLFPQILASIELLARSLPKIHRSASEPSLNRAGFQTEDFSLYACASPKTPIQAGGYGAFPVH
Procedure: Assays for biochemical and cell based activity are known in the art, for example, as described in PCT publication WO 2007/002433, the disclosure of which is hereby incorporated by reference as it relates to such assays. For example, the biochemical activity IC50 values are determined with respect to inhibition of A-Raf kinase activity, B-Raf kinase activity, c-Raf-1 kinase activity, or B-Raf V600E kinase activity, where inhibition of phosphorylation of a peptide substrate is measured as a function of compound concentration. Compounds to be tested are diluted in dimethyl sulfoxide to a concentration of 0.1 mM. These are serially diluted 15 μL into 30 μL of dimethyl sulfoxide seven times in 96 well plates for a total of 8 dilution points, and for each dilution point 1 μL is added to a well of an assay plate. Plates are prepared such that each well in a 384 well plate contains 1 μL of compound in 10 μL volume with 0.1 ng Raf enzyme (i.e. any of A-Raf, B-Raf, c-Raf-1 or B-Raf V600E, Upstate Biotechnology or prepared by methods known to one of skill in the art), 50 mM HEPES, pH 7.0, 50 mM NaCl, 2 mM MgCl2, 1 mM MnCl2, 0.01% Tween-20, 1 mM DTT, and 100 nM biotin-MEK1 as substrate. The reaction is started with addition of 10 μL of 200 μM ATP (i.e. final 100 μM ATP). After incubation of the kinase reaction for 45 minutes at room temperature, 5 μL/well of Stop Solution is added (25 mM Hepes pH 7.5, 100 mM EDTA, 0.01% BSA with donor beads (Streptavidin coated beads, Perkin Elmer), acceptor beads (Protein A coated, Perkin Elmer), and anti phosphor MEK1/2 antibody (CellSignal), each at final concentration 10 μg/mL). The plates are incubated for 3 hours at room temperature and read on Envision reader (Perkin Elmer). Phosphorylation of Mek1 results in binding of the anti-phosphor-MEK1/2 antibody and association of the donor and acceptor beads such that signal correlates with kinase activity. The signal vs. compound concentration is used to determine the IC50.

| Compound | turbidity threshold (L, M, H) 4.5 [1] | turbidity threshold (L, M, H) 6.8 [1] | turbidity threshold (L, M, H) 7.4 [1] | Kinase having IC50 of >1 μM [2] | Kinase having IC50 of >1 μM [3] | Kinase having IC50 of <1 μM [4] | turbidity threshold (L, M, H) 1.4 [5] | IC50 [6] [µM] | Kinase having IC50 of >1 μM [4] | Kinase having IC50 of <1 μM ([2]; listing of the kinase means IC50 <1 μM) |
| --- | --- | --- | --- | --- | --- | --- | --- | --- | --- | --- |
| CCCS(=O)(=O)Nc1ccc(F)c(C(=O)c2c[nH]c3ncc(-c4cnc(OC)nc4)cc23)c1F [Compound P-0001, propane-1-sulfonic acid {2,4-difluoro-3-[5-(2-methoxy-pyrimidin-5-yl)-1H-pyrrolo[2,3-b]pyridine-3-carbonyl]-phenyl}-amide] | M (moderate solubility if the threshold concentration is 31.3 μM to 250 μM) | M (moderate solubility if the threshold concentration is 31.3 μM to 250 μM) | M (moderate solubility if the threshold concentration is 31.3 μM to 250 μM) | Kit | Btk | Tec | M (moderate solubility if the threshold concentration is 31.3 μM to 250 μM) | < 0.01 |  |  |
| CCCS(=O)(=O)Nc1ccc(F)c(C(=O)c2c[nH]c3ncc(C#N)cc23)c1F [Compound P-0002, propane-1-sulfonic acid [3-(5-cyano-1H-pyrrolo[2,3-b]pyridine-3-carbonyl)-2,4-difluoro-phenyl]-amide] | M (moderate solubility if the threshold concentration is 31.3 μM to 250 μM) | M (moderate solubility if the threshold concentration is 31.3 μM to 250 μM) | M (moderate solubility if the threshold concentration is 31.3 μM to 250 μM) | Kit | Btk |  | M (moderate solubility if the threshold concentration is 31.3 μM to 250 μM) | < 0.01 | Tec |  |
| CCCS(=O)(=O)Nc1cccc(C(=O)c2c[nH]c3ncc(C#N)cc23)c1F [Compound P-0003, propane-1-sulfonic acid [3-(5-cyano-1H-pyrrolo[2,3-b]pyridine-3-carbonyl)-2-fluoro-phenyl]-amide] | M (moderate solubility if the threshold concentration is 31.3 μM to 250 μM) | M (moderate solubility if the threshold concentration is 31.3 μM to 250 μM) | M (moderate solubility if the threshold concentration is 31.3 μM to 250 μM) | Kit | Btk |  | M (moderate solubility if the threshold concentration is 31.3 μM to 250 μM) | ~0.1 |  |  |
| N#Cc1cnc2[nH]cc(C(=O)c3c(F)ccc(NS(=O)(=O)c4cc(F)ccc4F)c3F)c2c1 [Compound P-0004, N-[3-(5-cyano-1H-pyrrolo[2,3-b]pyridine-3-carbonyl)-2,4-difluoro-phenyl]-2,5-difluoro-benzenesulfonamide] | M (moderate solubility if the threshold concentration is 31.3 μM to 250 μM) | M (moderate solubility if the threshold concentration is 31.3 μM to 250 μM) | M (moderate solubility if the threshold concentration is 31.3 μM to 250 μM) |  | Btk |  | M (moderate solubility if the threshold concentration is 31.3 μM to 250 μM) | < 0.01 | Tec | Kit |
| N#Cc1cnc2[nH]cc(C(=O)c3c(F)ccc(NS(=O)(=O)c4cccc(F)c4)c3F)c2c1 [Compound P-0005, N-[3-(5-cyano-1H-pyrrolo[2,3-b]pyridine-3-carbonyl)-2,4-difluoro-phenyl]-3-fluoro-benzenesulfonamide] | M (moderate solubility if the threshold concentration is 31.3 μM to 250 μM) | M (moderate solubility if the threshold concentration is 31.3 μM to 250 μM) | M (moderate solubility if the threshold concentration is 31.3 μM to 250 μM) | Kit | Btk |  | M (moderate solubility if the threshold concentration is 31.3 μM to 250 μM) | < 0.01 | Tec |  |
| N#Cc1cnc2[nH]cc(C(=O)c3c(F)ccc(NS(=O)(=O)N4CCCC4)c3F)c2c1 [Compound P-0006, pyrrolidine-1-sulfonic acid [3-(5-cyano-1H-pyrrolo[2,3-b]pyridine-3-carbonyl)-2,4-difluoro-phenyl]-amide] | M (moderate solubility if the threshold concentration is 31.3 μM to 250 μM) | M (moderate solubility if the threshold concentration is 31.3 μM to 250 μM) | M (moderate solubility if the threshold concentration is 31.3 μM to 250 μM) | Kit | Btk | Tec | M (moderate solubility if the threshold concentration is 31.3 μM to 250 μM) | < 0.01 |  |  |

Reference: patent US8901301B2, “Pyrrolo[2,3-]pyridine kinase inhibitors” (Plexxikon Inc., priority 2009, dated 2014)
